In publication PMC8470881, “Membrane Interactions of Latarcins: Antimicrobial Peptides from Spider Venom” (International Journal of Molecular Sciences, 2021):

system: human red blood cells; assay: Hemolysis assay; details: peptide concentration 256 µg/mL, 30 min, 37 °C
Procedure: A hemolysis assay was performed to determine the activity of latarcins against human red blood cells, allowing us to compare the results to those of previous experiments in which rabbit erythrocytes were used. The activity was determined for each latarcin as a function of increasing concentration, up to a maximum of 256 µg of peptides per mL. […] The percentage hemolysis of the other peptides was determined at the highest tested concentration of 256 µg/mL.
The influence of latarcins on human erythrocytes was determined by using a hemolysis assay modified from previously published methods. Blood was obtained from the blood bank of the local hospital in Karlsruhe and stabilized with citrate phosphate dextrose buffer. Erythrocyte suspension (5 mL) was taken up in Tris buffer (45 mL, 172 mM, pH 7.6) at room temperature, gently mixed, and centrifuged (1500 rpm, 10 min). The supernatant solution was removed, and Tris wash was repeated twice with 45 mL as above. The washed erythrocytes (1 mL) were suspended in 9 mL Tris buffer to make the stock cell suspension, which was then further diluted to 0.25% (v/v) at 37 °C before use. Peptide stock solutions were prepared with 1024 µg/mL in Tris buffer containing 10% DMSO, and serial dilutions were prepared in the range of 512 µg/mL to 2 µg/mL as described previously. For the positive control, Triton X-100 (200 µL of 0.2% v/v) was used, and as the negative control, Tris buffer (200 µL, 172 mM) was used. Erythrocyte stock cell suspension (200 µL) was added to each of the samples and incubated for 30 min at 37 °C with gentle shaking before determining the percentage of hemolysis as described previously.

Point of comparison: H-GLKDKFKSMGEKLKQYIQTWKAKF-NH2 [Ltc4a], “% Hemolysis” value 12%. Against it:
- G E TF D K L K E K L K TFYQ K LV E K A ED L K G D L K A K LS-acid [Ltc7] — lower, 2%
- H-GFFGKMKEYFKKFGASFKRRFANLKKRL-NH2 [Ltc5] — higher, 27%
- H-QAFQTFKPDWNKIRYDAMKMQTSLGQMKKRFNL-OH [Ltc6a] — lower, 3%
- H-SWKSMAKKLKEYMEKLKQRA-NH2 [Ltc3a] — higher, 16%
